Experimental data taken from ChEMBL document CHEMBL5543111, “Uncovering PROTAC Sensitivity and Efficacy by Multidimensional Proteome Profiling: A Case for STAT3” (J Med Chem, 2024).
Calls of active or inactive are those of the source.

Experiments:
[1] = molecular target: Protein cereblon/Bromodomain-containing protein 2 (Homo sapiens) (UniProt P25440+Q96SW2); assay: PROTAC activity at CRBN/BRD2 in human A549 cells assessed as degradation of BRD2 protein level at 100 nM incubated for 24 hrs; type: cell-based
Protein cereblon/Bromodomain-containing protein 2 (Homo sapiens), sequence (P25440 whole entry, looked up): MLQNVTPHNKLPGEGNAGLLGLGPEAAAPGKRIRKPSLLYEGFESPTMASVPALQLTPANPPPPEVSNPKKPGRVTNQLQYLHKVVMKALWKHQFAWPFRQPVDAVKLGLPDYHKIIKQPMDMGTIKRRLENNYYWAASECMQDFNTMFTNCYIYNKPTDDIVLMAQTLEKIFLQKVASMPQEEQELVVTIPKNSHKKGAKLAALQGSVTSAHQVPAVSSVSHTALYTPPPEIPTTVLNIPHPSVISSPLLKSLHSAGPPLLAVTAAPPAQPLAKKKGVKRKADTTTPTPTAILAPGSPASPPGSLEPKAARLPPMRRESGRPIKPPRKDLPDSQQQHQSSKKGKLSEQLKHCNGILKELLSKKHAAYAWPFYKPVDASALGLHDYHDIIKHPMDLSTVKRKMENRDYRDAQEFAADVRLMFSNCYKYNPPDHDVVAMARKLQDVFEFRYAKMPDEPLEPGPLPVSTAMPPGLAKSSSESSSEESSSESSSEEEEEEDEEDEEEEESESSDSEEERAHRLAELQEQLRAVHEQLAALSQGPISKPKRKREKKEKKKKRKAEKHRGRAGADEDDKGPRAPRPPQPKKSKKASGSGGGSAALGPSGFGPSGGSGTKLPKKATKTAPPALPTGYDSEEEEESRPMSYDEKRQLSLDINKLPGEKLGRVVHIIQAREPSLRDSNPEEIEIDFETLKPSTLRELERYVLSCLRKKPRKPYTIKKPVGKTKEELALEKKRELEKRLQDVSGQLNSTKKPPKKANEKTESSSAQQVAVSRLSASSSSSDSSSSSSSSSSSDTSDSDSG
Protein cereblon/Bromodomain-containing protein 2 (Homo sapiens), sequence (Q96SW2 whole entry, looked up): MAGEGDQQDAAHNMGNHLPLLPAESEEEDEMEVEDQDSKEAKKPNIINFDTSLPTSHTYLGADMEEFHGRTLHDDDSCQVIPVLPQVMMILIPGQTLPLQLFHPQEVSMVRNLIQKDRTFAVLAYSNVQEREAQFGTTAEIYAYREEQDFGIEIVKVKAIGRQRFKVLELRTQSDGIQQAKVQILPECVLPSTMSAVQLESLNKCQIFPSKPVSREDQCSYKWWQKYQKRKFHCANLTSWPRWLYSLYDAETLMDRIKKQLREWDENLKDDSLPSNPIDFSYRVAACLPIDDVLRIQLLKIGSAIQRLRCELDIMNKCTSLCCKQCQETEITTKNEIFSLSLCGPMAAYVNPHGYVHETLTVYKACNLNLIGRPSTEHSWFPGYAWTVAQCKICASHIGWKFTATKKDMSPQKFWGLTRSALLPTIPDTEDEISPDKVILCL

[2] = molecular target: Protein cereblon/Bromodomain-containing protein 3 (Homo sapiens) (UniProt Q15059+Q96SW2); assay: PROTAC activity at CRBN/BRD3 in human A549 cells assessed as degradation of BRD3 protein level at 100 nM incubated for 24 hrs; type: cell-based
Protein cereblon/Bromodomain-containing protein 3 (Homo sapiens), sequence (Q15059 2-726 limits assumed): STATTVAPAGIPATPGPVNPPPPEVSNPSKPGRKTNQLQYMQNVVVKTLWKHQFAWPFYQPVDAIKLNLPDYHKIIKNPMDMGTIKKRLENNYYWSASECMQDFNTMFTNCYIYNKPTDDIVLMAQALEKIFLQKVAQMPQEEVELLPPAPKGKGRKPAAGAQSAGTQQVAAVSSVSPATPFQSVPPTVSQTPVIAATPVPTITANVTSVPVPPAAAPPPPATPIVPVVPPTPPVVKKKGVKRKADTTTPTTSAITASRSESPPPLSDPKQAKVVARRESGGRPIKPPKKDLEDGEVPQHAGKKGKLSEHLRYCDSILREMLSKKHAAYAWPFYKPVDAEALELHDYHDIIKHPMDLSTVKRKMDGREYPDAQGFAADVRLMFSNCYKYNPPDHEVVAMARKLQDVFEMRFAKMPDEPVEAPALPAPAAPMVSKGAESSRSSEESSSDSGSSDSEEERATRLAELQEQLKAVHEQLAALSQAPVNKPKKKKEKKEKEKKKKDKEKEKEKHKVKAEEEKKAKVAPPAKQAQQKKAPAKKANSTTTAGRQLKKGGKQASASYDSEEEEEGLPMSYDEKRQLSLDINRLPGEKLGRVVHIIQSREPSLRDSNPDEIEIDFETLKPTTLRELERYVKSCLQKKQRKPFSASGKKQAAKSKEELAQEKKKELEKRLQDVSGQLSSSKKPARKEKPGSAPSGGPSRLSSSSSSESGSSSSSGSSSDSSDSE
Protein cereblon/Bromodomain-containing protein 3 (Homo sapiens), sequence (Q96SW2 whole entry partner): as the sequence (Q96SW2 whole entry, looked up) above

[3] = molecular target: Protein cereblon/Bromodomain-containing protein 4 (Homo sapiens) (UniProt O60885+Q96SW2); assay: PROTAC activity at CRBN/BRD4 in human A549 cells assessed as degradation of BRD4 protein level at 100 nM incubated for 24 hrs; type: cell-based
Protein cereblon/Bromodomain-containing protein 4 (Homo sapiens), sequence (Q96SW2 whole entry, looked up, other chains not shown): as the sequence (Q96SW2 whole entry, looked up) above

A549 [4] = assay: Upregulation of p53 protein expression in human A549 cells at 10 to 100 nM; type: functional, cell-based; conditions: dose 10-100 nM, time 3-24 hrs, TDE = time-dependent effect
A549 [5] = assay: Upregulation of p53 protein expression in human A549 cells measured after 3 to 24 hrs; type: functional, cell-based; conditions: dose 10-100 nM, time 3-24 hrs
A549 [6] = assay: Upregulation of p21 protein expression in human A549 cells at 100 nM measured after 24 hrs; type: functional, cell-based

Measured: Activity

CCn1nc(C2CC2)cc1Nc1nc(C(=O)NCCCCCc2cccc3c2CN(C2CCC(=O)NC2=O)C3=O)nc2[nH]c3cc(-c4c(C)noc4C)c(OC)cc3c12 (stereo unspecified)
active: [1] | [2] | [3] | A549 [4] Tde | A549 [5] Dose-Dependent Effect | A549 [6]
